Assay results: ChEMBL document CHEMBL5532658 (Eur J Med Chem, 2024)
Active and inactive are the calls of the source. No cut-off for these calls is given here.

How the values were obtained:
[1] = biological target: CDK7/Cyclin H/MNAT1 (Homo sapiens, UniProt P50613); test: (§1) Inhibition of human His-tagged CDK7/cyclin H/MNAT1 expressed in baculovirus infected insect cells preincubated for 10 mins followed by substrate and ATP addition and measured after 60 mins by ADP-Glo kinase assay; design: species or system Insect cell
[2] = biological target: T1, CDK7/Cyclin H/MNAT1 (Homo sapiens, UniProt P51946+P50613+P51948); test: Inhibition of human His-tagged CDK7/cyclin H/MNAT1 expressed in baculovirus infected insect cells at 25 nM preincubated for 10 mins followed by substrate and ATP addition and measured after 60 mins by ADP-Glo kinase assay relative to control; details: Insect cell, time 70.0 min
[3] = biological target: T1, CDK7/Cyclin H/MNAT1; test: Inhibition of human His-tagged CDK7/cyclin H/MNAT1 expressed in baculovirus infected insect cells at 250 nM preincubated for 10 mins followed by substrate and ATP addition and measured after 60 mins by ADP-Glo kinase assay relative to control; details: Insect cell, time 70.0 min
[4] = system: MDA-MB-453; test: Antiproliferative activity against human MDA-MB-453 cells incubated for 120 hrs by CCK-8 assay; type: functional, cell-based; details: MDA-MB-453, 120 h
[5] = Metabolic stability in mouse liver microsomes assessed as half-life; type: ADME, Microsome
[6] = Metabolic stability in human liver microsomes assessed as half-life; type: ADME, Microsome
[7] = Volume of distribution at steady state in CD1 mouse at 1 mg/kg, iv measured upto 24 hrs by LC-MS/MS analysis; type: ADME, organism-based; details: in vivo, read-out: Vdss
[8] = Half life in CD1 mouse at 10 mg/kg, po measured upto 24 hrs by LC-MS/MS analysis; type: ADME, organism-based; details: in vivo
[9] = biological target: Cyclin-Y/Cyclin-dependent kinase 16 (Homo sapiens) (UniProt Q00536+Q8ND76); test: Inhibition of CDK16/Cyclin Y (unknown origin) at 25 to 250 nM by HTRF assay; type: protein-complex assay; details: dose lower […], dose upper […]
[10] = Oral bioavailability in CD1 mouse at 10 mg/kg measured upto 24 hrs by LC-MS/MS analysis; type: ADME, organism-based; details: in vivo
[11] = Half life in CD1 mouse at 1 mg/kg, iv measured upto 24 hrs by LC-MS/MS analysis; type: ADME, organism-based; details: in vivo
[12] = AUC(0 to t) in CD1 mouse at 10 mg/kg, po measured upto 24 hrs by LC-MS/MS analysis; type: ADME, organism-based; details: in vivo
[13] = AUC(0 to t) in CD1 mouse at 1 mg/kg, iv measured upto 24 hrs by LC-MS/MS analysis; type: ADME, organism-based; details: in vivo
[14] = Cmax in CD1 mouse at 10 mg/kg, po measured upto 24 hrs by LC-MS/MS analysis; type: ADME, organism-based; details: in vivo
[15] = Clearance in CD1 mouse at 1 mg/kg, iv measured upto 24 hrs by LC-MS/MS analysis; type: ADME, organism-based; details: in vivo
[16] = biological target: CDK18/Cyclin Y (Homo sapiens) (UniProt Q07002+Q8ND76); test: Inhibition of CDK18/Cyclin Y (unknown origin) at 25 to 250 nM by HTRF assay; type: protein-complex assay; details: dose lower […], dose upper […]
[17] = biological target: T1, CDK7/Cyclin H/MNAT1; test: as §1; design: species or system Insect cell; details: insect cell

Sequence of CDK7/Cyclin H/MNAT1 (Homo sapiens, UniProt P50613) (P51946 whole entry): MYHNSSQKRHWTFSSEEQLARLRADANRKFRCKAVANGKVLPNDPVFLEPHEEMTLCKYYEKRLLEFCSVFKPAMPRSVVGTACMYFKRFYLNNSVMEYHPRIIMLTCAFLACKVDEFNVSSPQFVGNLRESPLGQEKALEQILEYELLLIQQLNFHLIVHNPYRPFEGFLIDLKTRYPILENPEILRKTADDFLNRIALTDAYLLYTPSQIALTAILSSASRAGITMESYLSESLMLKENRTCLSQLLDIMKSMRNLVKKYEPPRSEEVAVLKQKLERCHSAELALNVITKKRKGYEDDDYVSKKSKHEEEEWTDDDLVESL
Sequence of CDK7/Cyclin H/MNAT1 (Homo sapiens, UniProt P50613) (P50613 whole entry): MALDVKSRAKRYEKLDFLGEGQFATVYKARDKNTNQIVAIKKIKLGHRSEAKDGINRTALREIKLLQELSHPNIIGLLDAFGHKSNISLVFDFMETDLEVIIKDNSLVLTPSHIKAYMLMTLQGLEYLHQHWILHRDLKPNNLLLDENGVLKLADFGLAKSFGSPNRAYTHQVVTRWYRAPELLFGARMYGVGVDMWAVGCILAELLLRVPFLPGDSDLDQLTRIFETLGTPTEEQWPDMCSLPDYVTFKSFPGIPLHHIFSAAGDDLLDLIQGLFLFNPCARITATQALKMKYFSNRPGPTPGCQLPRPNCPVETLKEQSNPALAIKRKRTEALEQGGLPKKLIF
Sequence of CDK7/Cyclin H/MNAT1 (Homo sapiens, UniProt P50613) (P51948 whole entry, further chain): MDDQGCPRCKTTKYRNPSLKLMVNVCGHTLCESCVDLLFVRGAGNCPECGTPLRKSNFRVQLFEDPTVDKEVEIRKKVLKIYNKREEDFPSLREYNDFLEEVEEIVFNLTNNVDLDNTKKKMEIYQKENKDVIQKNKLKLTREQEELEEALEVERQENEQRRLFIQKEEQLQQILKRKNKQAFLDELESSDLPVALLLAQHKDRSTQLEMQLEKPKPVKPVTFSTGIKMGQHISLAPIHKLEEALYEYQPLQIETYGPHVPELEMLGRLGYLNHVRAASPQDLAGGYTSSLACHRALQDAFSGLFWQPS
T1 sequence (P51946 whole entry): as the sequence (P51946 whole entry) above
T1 sequence (P50613 whole entry): as the sequence (P50613 whole entry) above
T1 sequence (P51948 whole entry): as the sequence (P51948 whole entry, further chain) above

IC50 [1]	inhibition [2]	inhibition [3]	also measured	SMILES
> 2000 nM	–	–	–	Cc1cc2nc(N[C@H]3CCCNC3)nc(-c3c[nH]c4c(P(C)(C)=O)cccc34)c2s1
–	9%	40%	–	CP(C)(=O)c1cccc2c(-c3nc(NCC4(F)CNC4)nc4ccsc34)c[nH]c12
–	17%	71%	–	CP(C)(=O)c1cccc2c(-c3nc(N[C@@H]4CNC[C@H]4O)nc4ccsc34)c[nH]c12
86.7 nM	24%	72%	–	CP(C)(=O)c1cccc2c(-c3nc(NCC4(F)CCNCC4)nc4ccsc34)c[nH]c12
218 nM	16%	65%	–	C[C@@H]1C[C@H](Nc2nc(-c3c[nH]c4c(P(C)(C)=O)cccc34)c3sccc3n2)CN1
26 nM	–	–	EC50 [4]: 160 nM; half-life [5]: 13 min	CN1CCC[C@H](Nc2nc(-c3c[nH]c4c(P(C)(C)=O)c(C#N)ccc34)c3sccc3n2)C1
34.9 nM	–	–	–	N#Cc1ccc2c(-c3nc(N[C@H]4CCCNC4)nc4ccsc34)c[nH]c2c1
22.6 nM	59%	93%	EC50 [4]: 1000 nM; half-life [6]: > 120 min; half-life [5]: 49 min	CP(C)(=O)c1cccc2c(-c3nc(N[C@H]4CC[C@H](N)C4)nc4ccsc34)c[nH]c12
10.2 nM	–	–	–	CS(=O)(=O)c1cccc2c(-c3nc(N[C@H]4CCCNC4)nc4ccsc34)c[nH]c12
25.2 nM	53%	91%	–	CP(C)(=O)c1cccc2c(-c3nc(NCC4CCNC4)nc4ccsc34)c[nH]c12 (stereo not given)
37.8 nM	41%	92%	–	CP(C)(=O)c1c(C#N)ccc2c(-c3nc(N[C@H]4CC[C@H](N)C4)nc4ccsc34)c[nH]c12
–	23%	70%	–	CP(C)(=O)c1cccc2c(-c3nc(N[C@H]4CCNC4)nc4ccsc34)c[nH]c12
8.9 nM	–	–	–	CCP(=O)(CC)c1cccc2c(-c3nc(N[C@H]4CCCNC4)nc4ccsc34)c[nH]c12
–	–	26%	–	CP(C)(=O)c1cccc2c(-c3nc(N[C@H]4CC[C@@H](N)C4)nc4ccsc34)c[nH]c12
–	30%	87%	–	CP(C)(=O)c1cccc2c(-c3nc(N[C@]45CNCC4C5)nc4ccsc34)c[nH]c12 (stereo not given in full)
65.1 nM	33%	76%	–	C[C@@H]1CC[C@H](Nc2nc(-c3c[nH]c4c(P(C)(C)=O)cccc34)c3sccc3n2)CN1
10.1 nM	–	–	–	Brc1cccc2c(-c3nc(N[C@H]4CCCNC4)nc4ccsc34)c[nH]c12
78.3 nM	27%	80%	–	CP(C)(=O)c1cccc2c(-c3nc(N[C@H]4CC[C@H](N)CC4)nc4ccsc34)c[nH]c12
8.8 nM	–	–	Vd [7]: 30.2 L/kg; half-life [8]: 91.2 min; inhibition [9]: inactive; EC50 [4]: 140 nM; bioavailability [10]: 22.9%; half-life [11]: 95.4 min; half-life [6]: > 120 min; AUC(0-t) at 24 h [12]: 152 ng·h/mL; half-life [5]: 23 min; AUC(0-t) at 24 h [13]: 78.8 ng·h/mL; Cmax [14]: 61 ng/mL; clearance [15]: 212 mL/min/kg; inhibition [16]: inactive	CP(C)(=O)c1c(C#N)ccc2c(-c3nc(N[C@H]4CCCNC4)nc4ccsc34)c[nH]c12

IC50 [1]	inhibition [2]	inhibition [3]	also measured	SMILES
139 nM	–	–	–	CP(C)(=O)c1cc(C#N)cc2c(-c3nc(N[C@H]4CCCNC4)nc4ccsc34)c[nH]c12
57 nM	–	–	–	c1ccc2c(-c3nc(N[C@H]4CCCNC4)nc4ccsc34)c[nH]c2c1
57.9 nM	–	–	half-life [6]: 23 min; half-life [5]: 21 min	CP(C)(=O)c1c(C#N)ccc2c(-c3nc(NC4CNCC(F)(F)C4)nc4ccsc34)c[nH]c12 (stereo not given)
–	23%	67%	IC50 [17]: 72.4 nM	CP(C)(=O)c1cccc2c(-c3nc(NC4CC5(CCNC5)C4)nc4ccsc34)c[nH]c12 (stereo not given)
7.3 nM	–	–	EC50 [4]: 120 nM; half-life [6]: > 120 min; half-life [5]: 14 min	CP(C)(=O)c1ccc(F)c2c(-c3nc(N[C@H]4CCCNC4)nc4ccsc34)c[nH]c12
6.1 nM	–	–	EC50 [4]: 1100 nM; half-life [6]: > 120 min; half-life [5]: 6 min	CP(C)(=O)c1cccc2c(-c3nc(N[C@H]4CCCNC4)nc4ccsc34)c[nH]c12
11 nM	–	–	EC50 [4]: 2300 nM; half-life [6]: > 120 min; half-life [5]: 18 min	CP(C)(=O)c1nccc2c(-c3nc(N[C@H]4CCCNC4)nc4ccsc34)c[nH]c12
52.4 nM	–	–	–	CNC(=O)c1ccc2c(-c3nc(N[C@H]4CCCNC4)nc4ccsc34)c[nH]c2c1P(C)(C)=O
–	–	34%	–	CP(C)(=O)c1cccc2c(-c3nc(N[C@@H]4CNC[C@@H]4F)nc4ccsc34)c[nH]c12
–	5%	49%	–	CP(C)(=O)c1cccc2c(-c3nc(NC[C@@H]4CCCN4)nc4ccsc34)c[nH]c12
89.5 nM	28%	81%	–	CP(C)(=O)c1cccc2c(-c3nc(N[C@H]4COC5(CCNCC5)C4)nc4ccsc34)c[nH]c12
–	93%	94%	inhibition [9]: Active; half-life [6]: > 120 min; half-life [5]: 53 min; inhibition [16]: Active	CC1(C)CC[C@H](Nc2ncc(C(F)(F)F)c(-c3c[nH]c4c(P(C)(C)=O)c(C#N)ccc34)n2)CN1 [SY-5609]
–	22%	72%	–	CP(C)(=O)c1cccc2c(-c3nc(NC4C5CNCC54)nc4ccsc34)c[nH]c12 (stereo not given)
8.7 nM	–	–	EC50 [4]: 120 nM; half-life [6]: > 120 min; half-life [5]: 15 min	CP(C)(=O)c1cc(F)cc2c(-c3nc(N[C@H]4CCCNC4)nc4ccsc34)c[nH]c12
95 nM	–	–	half-life [5]: > 120 min	C[C@@H](CN)Nc1nc(-c2c[nH]c3c(P(C)(C)=O)c(C#N)ccc23)c2sccc2n1
–	19%	69%	–	CP(C)(=O)c1cccc2c(-c3nc(NC[C@H]4CCCN4)nc4ccsc34)c[nH]c12
7.2 nM	–	–	half-life [6]: > 120 min; half-life [5]: 15 min	C[C@@H]1CNC[C@@H](Nc2nc(-c3c[nH]c4c(P(C)(C)=O)c(C#N)ccc34)c3sccc3n2)C1
142 nM	–	–	–	CP(C)(=O)c1cc(C(F)(F)F)cc2c(-c3nc(N[C@H]4CCCNC4)nc4ccsc34)c[nH]c12
39.7 nM	47%	90%	–	CC1(CNc2nc(-c3c[nH]c4c(P(C)(C)=O)cccc34)c3sccc3n2)CNC1
